Among the data in the NIST ThermoML archive (doi:10.1021/je0503554) are activity coefficient values, retold here.

This data set in a line: activity coefficient (dimensionless); of the first substance listed, at infinite dilution; xn = mol fraction of the nth substance listed. The settings on record: Liquid, Chromatography, x1 = 0.

Structures are written as SMILES. Numbers after ± are expanded uncertainties.

In the case of `Cc1ccccc1` [toluene] + CCCCCC[n+]1ccn(C)c1.O=S(=O)([N-]S(=O)(=O)C(F)(F)F)C(F)(F)F, the activity coefficient came out at 1.04 ± 0.07 (307.05 K); 1.04 ± 0.07 (312.35 K); 1.06 ± 0.07 (322.85 K); 1.06 ± 0.07 (333.35 K); 1.08 ± 0.07 (343.85 K).

For `ClC(Cl)Cl` [trichloromethane] + CCCCCC[n+]1ccn(C)c1.O=S(=O)([N-]S(=O)(=O)C(F)(F)F)C(F)(F)F, the activity coefficient (301.75 K) was 0.67 ± 0.045; the activity coefficient (301.85 K) came to 0.67 ± 0.045; the activity coefficient (312.25 K) stood at 0.68 ± 0.046; the activity coefficient (312.45 K) worked out at 0.68 ± 0.046; the activity coefficient (322.85 K) turned out to be 0.69 ± 0.046; the activity coefficient (323.05 K) is 0.7 ± 0.047. The activity coefficient came out at 0.71 ± 0.047 (333.45 K) and 0.72 ± 0.048 (343.95 K).

Take `CCCCCCCCCCC` [undecane] + CCCCCC[n+]1ccn(C)c1.O=S(=O)([N-]S(=O)(=O)C(F)(F)F)C(F)(F)F: the activity coefficient worked out at 37.3 ± 2.5 (312.35 K); 34.1 ± 2.3 (322.85 K); 30 ± 2 (333.35 K); 27.7 ± 1.9 (343.75 K); 26 ± 1.8 (354.25 K).
